Values of other authors in patent publication US20180344745A1, “TREATMENT OF DEVELOPMENTAL DISORDERS WITH IMIDAZOLONE DERIVATIVES” (Ovid Therapeutics Inc., priority 2017, published 2018).

Details: smokers versus non-smokers

For `O=C1N=C(N2CCOCC2)CN1c1ccc(Cl)cc1` [imepitoin, 1-(4-chlorophenyl)-4-morpholino-imidazolin-2-one], the elimination is listed as “more rapidly eliminated in smokers than in non-smokers”.
